Test results taken from patent US8802597B2, “Herbicidal pyrimidines” (E I du Pont de Nemours and Company, priority 2003, dated 2014).

Legend:
Assay type in all cases: in vivo
[1] = tested on: duck salad (Heteranthera limosa); assay: Test C flooded paddy test; conditions: Flood, scale 0 to 100
Experimental: (§1) At the same time, plants selected from these crop and weed species and also winter barley (Hordeum vulgare), blackgrass (Alopecurus myosuroides), canarygrass (Phalaris minor), chickweed (Stellaria media), downy brome (Bromus tectorum), green foxtail (Setaria viridis), Italian ryegrass (Lolium multiflorum), wheat (Triticum aestivum), wild oat (Avena fatua) and windgrass (Apera spica-venti) were treated with postemergence applications of some of the test chemicals formulated in the same manner. Plants ranged in height from 2 to 18 cm (1- to 4-leaf stage) for postemergence treatments. Plant species in the flooded paddy test consisted of rice (Oryza sativa), umbrella sedge (Cyperus difformis), duck salad (Heteranthera limosa) and barnyardgrass (Echinochloa crus-galli) grown to the 2-leaf stage for testing. Treated plants and controls were maintained in a greenhouse for 12 to 14 days, after which time all species were compared to controls and visually evaluated. Plant response ratings, summarized in Table C, are based on a scale of 0 to 100 where 0 is no effect and 100 is complete control. A dash (-) response means no test result.

rice (Oryza sativa) [2] = assay: Test C flooded paddy test; conditions: Flood, scale 0 to 100
Experimental: as §1

[3] = tested on: umbrella sedge (Cyperus difformis); assay: Test C flooded paddy test; conditions: Flood, scale 0 to 100
Experimental: as §1

[4] = tested on: barnyardgrass (Echinochloa crus-galli); assay: Test C flooded paddy test; conditions: Flood
Experimental: as §1

[5] = tested on: duck salad (Heteranthera limosa); assay: Test B flooded paddy test; conditions: Flood, 1000 g ai/ha; scale 0 to 100
How it was run: (§2)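 Visual injury scoring (0 = no effect, 100 = complete control) versus controls made 13 to 15 days after treatment in the greenhouse. Test species were grown in flooded paddy to the 2-leaf stage: rice, barnyardgrass, umbrella sedge, duck salad.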

rice (Oryza sativa) [6] = assay: Test B flooded paddy test; conditions: Flood, 1000 g ai/ha; scale 0 to 100
How it was run: as §2

[7] = tested on: umbrella sedge (Cyperus difformis); assay: Test B flooded paddy test; conditions: Flood, 1000 g ai/ha; scale 0 to 100
How it was run: as §2

[8] = tested on: barnyardgrass (Echinochloa crus-galli); assay: Test B flooded paddy test; conditions: Flood, 1000 g ai/ha; scale 0 (no effect) to 100 (complete control)
How it was run: as §2

[9] = tested on: pigweed (Amaranthus retroflexus); assay: Test B pre/postemergence
How it was run: (§3)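 Formulation: non-phytotoxic solvent blend with surfactant. Timing: preemergence on seeds, postemergence at 1- to 4-leaf (2–18 cm). Assessment: visual, 0–100 against controls, after 13–15 days' greenhouse growth.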

[10] = tested on: giant foxtail (Setaria faberii); assay: Test B pre/postemergence
How it was run: as §3

[11] = tested on: velvetleaf (Abutilon theophrasti); assay: Test B pre/postemergence
How it was run: as §3

corn (Zea mays) = assay: Test B pre/postemergence
How it was run: as §3

[12] = tested on: barnyardgrass (Echinochloa crus-galli); assay: Test B pre/postemergence
How it was run: as §3

[13] = tested on: wheat (Triticum aestivum); assay: Test B pre/postemergence
How it was run: as §3

[14] = tested on: Surinam grass (Brachiaria decumbens); assay: Test B pre/postemergence
How it was run: as §3

[15] = tested on: morningglory (Ipomoea coccinea); assay: Test B pre/postemergence
How it was run: as §3

[16] = tested on: cocklebur (Xanthium strumarium); assay: Test B pre/postemergence
How it was run: as §3

[17] = tested on: crabgrass (Digitaria sanguinalis); assay: Test B pre/postemergence
How it was run: as §3

[18] = tested on: lambsquarters (Chenopodium album); assay: Test B pre/postemergence
How it was run: as §3

wild oat (Avena fatua) = assay: Test B postemergence
How it was run: as §3

[19] = tested on: blackgrass (Alopecurus myosuroides); assay: Test B postemergence
How it was run: as §3

[20] = Postemergence, 125 g ai/ha, scale 0 to 100 (0 no effect, 100 complete control)
[21] = Postemergence, 500 g ai/ha, scale 0 to 100
[22] = Preemergence, 125 g ai/ha, scale 0 to 100 (0 no effect, 100 complete control)
[23] = Preemergence, 500 g ai/ha, scale 0 to 100 (0 no effect, 100 complete control)
[24] = 125 g ai/ha, scale 0 to 100 (0 no effect, 100 complete control)

## CC(C)OC(=O)c1nc(C2CC2)nc(N)c1Br [Compound 14]
[1]; 62 g ai/ha
  Plant response rating, Ducksalad: 0
[1]; 125 g ai/ha
  Plant response rating, Ducksalad: 40
[1]; 250 g ai/ha
  Plant response rating, Ducksalad: 45
[1]; 500 g ai/ha
  Plant response rating, Ducksalad: 55
Rice (Oryza sativa) [2]; 62 g ai/ha
  Plant response rating, Rice: 0
Rice (Oryza sativa) [2]; 125 g ai/ha
  Plant response rating, Rice: 0
Rice (Oryza sativa) [2]; 250 g ai/ha
  Plant response rating, Rice: 0
Rice (Oryza sativa) [2]; 500 g ai/ha
  Plant response rating, Rice: 0
[3]; 62 g ai/ha
  Plant response rating, Sedge, Umbrella: 0
[3]; 125 g ai/ha
  Plant response rating, Sedge, Umbrella: 0
[3]; 250 g ai/ha
  Plant response rating, Sedge, Umbrella: 0
[3]; 500 g ai/ha
  Plant response rating, Sedge, Umbrella: 30
[4]; 62 g ai/ha, scale 0 to 100
  Plant response rating, Barnyardgrass: 0
[4]; 125 g ai/ha, scale 0 to 100
  Plant response rating, Barnyardgrass: 0
[4]; 250 g ai/ha, scale 0 to 100
  Plant response rating, Barnyardgrass: 0
[4]; 500 g ai/ha, scale 0 to 100 (0 no effect, 100 complete control)
  Plant response rating, Barnyardgrass: 45
[5]
  Plant response rating, Ducksalad: 80
Rice (Oryza sativa) [6]
  Plant response rating, Rice: 20
[7]
  Plant response rating, Sedge, Umbrella: 50
[8]
  Plant response rating, Barnyardgrass: 80
[9]; [20]
  Pigweed plant response rating: 80
[9]; [21]
  Plant response rating, Pigweed: 90
[9]; [22]
  Plant response rating, Pigweed: 80
[9]; [23]
  Pigweed plant response rating: 90
[10]; [20]
  Foxtail, Giant plant response rating: 20
[10]; [21]
  Plant response rating, Foxtail, Giant: 50
[10]; [22]
  Plant response rating, Foxtail, Giant: 30
[10]; [23]
  Foxtail, Giant plant response rating: 80
[11]; [20]
  Velvetleaf plant response rating: 50
[11]; [21]
  Plant response rating, Velvetleaf: 70
[11]; [22]
  Plant response rating, Velvetleaf: 60
[11]; [23]
  Velvetleaf plant response rating: 80
Corn (Zea mays); [20]
  Corn plant response rating: 30
Corn (Zea mays); [21]
  Plant response rating, Corn: 70
Corn (Zea mays); [22]
  Plant response rating, Corn: 0
Corn (Zea mays); [23]
  Corn plant response rating: 70
[12]; [20]
  Barnyardgrass plant response rating: 30
[12]; [21]
  Plant response rating, Barnyardgrass: 90
[12]; [22]
  Plant response rating, Barnyardgrass: 10
[12]; [23]
  Barnyardgrass plant response rating: 80
[13]; [20]
  Wheat plant response rating: 20
[13]; [21]
  Plant response rating, Wheat: 50
[13]; [22]
  Plant response rating, Wheat: 40
[13]; [23]
  Wheat plant response rating: 50
[14]; [20]
  Surinam Grass plant response rating: 10
[14]; [21]
  Plant response rating, Surinam Grass: 50
[14]; [22]
  Plant response rating, Surinam Grass: 40
[14]; [23]
  Surinam Grass plant response rating: 80
[15]; [20]
  Morningglory plant response rating: 100
[15]; [21]
  Plant response rating, Morningglory: 100
[15]; [22]
  Plant response rating, Morningglory: 70
[15]; [23]
  Morningglory plant response rating: 100
[16]; [20]
  Cocklebur plant response rating: 50
[16]; [21]
  Plant response rating, Cocklebur: 70
[16]; [22]
  Plant response rating, Cocklebur: 60
[16]; [23]
  Cocklebur plant response rating: 80
[17]; [20]
  Crabgrass plant response rating: 10
[17]; [21]
  Plant response rating, Crabgrass: 30
[17]; [22]
  Plant response rating, Crabgrass: 10
[17]; [23]
  Crabgrass plant response rating: 80
[18]; [20]
  Lambsquarters plant response rating: 100
[18]; [21]
  Plant response rating, Lambsquarters: 100
[18]; [22]
  Plant response rating, Lambsquarters: 90
[18]; [23]
  Lambsquarters plant response rating: 100
Wild oat (Avena fatua); [24]
  Oat, Wild plant response rating: 20
Wild oat (Avena fatua); 500 g ai/ha, scale 0 to 100
  Plant response rating, Oat, Wild: 70
[19]; [24]
  Blackgrass plant response rating: 30
[19]; 500 g ai/ha, scale 0 to 100
  Plant response rating, Blackgrass: 60
